In patent US7166622B2, “Substituted phenylsulfonamide inhibitors of beta amyloid production” (Wyeth, priority 2002, dated 2007):
Read-outs that look alike come from different tables or passages of the source.

Experiments:
[1] = system: beta amyloid production; assay: Repressor Release Assay (RRA); assay type: cell-based; conditions: for APPI % of Example #98: relative to Example 98
Method in brief: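 Read-out is luciferase luminescence (RLU) after 36-48 h duplicate compound exposure of transfected CHO-K1 cells. These cells carry transiently introduced APP-lacI and pRSVO-luc DNA. Diluent control was 25 mM Hepes/1% DMSO; toxicity recorded as binary score (1 non-toxic, 0 toxic).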

[2] = system: CHO-K1 cells; assay: Toxicity in RRA (loss of luciferase signal); conditions: toxicity = loss of signal (<0.75 fold increase)
Experimental: The beta amyloid inhibitory activity of the compounds of the present invention was determined using the Repressor Release Assay (RRA).
“Fold Increase” refers to the amount of luciferase activity (measured in relative light units) over diluent control. “SEM” refers to the standard error of the mean for fold increase.

[3] = Conc 10 μg/ml, luciferase activity over diluent control, read-out: APPI Fold Increase
[4] = Conc 20 μg/ml, luciferase activity over diluent control, read-out: APPI Fold Increase
[5] = Conc 10 μg/ml, luciferase activity over diluent control
[6] = Conc 20 μg/ml, luciferase activity (RLU) over diluent control, read-out: APPI Fold Increase
[7] = Conc 20 μg/ml, 1=non-toxic, 0=toxic
[8] = Conc 20 μg/ml, luciferase activity over diluent control

Molecule | fold induction at 10 µg/mL [1, 3] | (%)APPI Toxicity ([2]; Conc 10 μg/ml) | fold induction at 20 µg/mL [1, 4] | (%)APPI Toxicity ([2]; Conc 20 μg/ml) | further results
CCCCCCC(O)[C@@H](NS(=O)(=O)c1cccc(Cl)c1)[C@@H](C)CC (stereo partly drawn) [Example 187, 3-chloro-N-{(1S)-2-hydroxy-1-[(1S)-1-methylpropyl]octyl}benzenesulfonamide] | 9.02 | 1 (1=non-toxic) | – | – | –
CCCCC(O)[C@@H](NS(=O)(=O)c1ccc(F)cc1)[C@@H](C)CC (stereo partly drawn) [Example 130, 4-fluoro-N-{(1S)-2-hydroxy-1-[(1S)-1-methylpropyl]hexyl}benzenesulfonamide] | 2.4 | 1 (1=non-toxic) | – | – | –
CC[C@H](C)[C@H](NS(=O)(=O)c1ccc(Cl)cc1)C(O)c1ccc(Cl)cc1 (stereo partly drawn) [Example 177, 4-chloro-N-{(1S,2S)-1-[(4-chlorophenyl) (hydroxy)methyl]-2-methylbutyl}benzenesulfonamide] | 1.95 | 1 (1=non-toxic) | – | – | –
CC(C)[C@@H](CO)NS(=O)(=O)c1ccccc1F [Example 119, 2-fluoro-N-[(1S)-1-(hydroxymethyl)-2-methylpropyl]benzenesulfonamide] | – | – | 1.5 | 1 (1=non-toxic) | –
CC[C@H](C)[C@@H](CO)N(Cc1ccco1)S(=O)(=O)c1ccc(Cl)cc1 [Example 46, 4-chloro-N-(2-furylmethyl)-N-[(1S,2S)-1-(hydroxymethyl)-2-methylbutyl]benzenesulfonamide] | – | – | 1.8 | 1 (1=non-toxic) | –
CC[C@H](C)[C@H](NS(=O)(=O)c1ccc(Br)cc1)C(O)c1ccc(N(C)C)cc1 (stereo partly drawn) [Example 164, 4-bromo-N-{(1S,2S)-1-[[4-(dimethylamino)phenyl](hydroxy)methyl]-2-methylbutyl} benzenesulfonamide] | – | 1 (1=non-toxic) | – | – | APPI Fold Increase [1, 5]: 3.53 fold; APPI % of Example #98 ([1]; Conc 10 μg/ml): 149.31%
C=CCCC(O)[C@@H](NS(=O)(=O)c1cccc(Cl)c1)[C@@H](C)CC (stereo partly drawn) [Example 200, 3-chloro-N-{(1S)-2-hydroxy-1-[(1S)-1-methylpropyl]-5-hexenyl}benzenesulfonamide] | 1.85 | 1 (1=non-toxic) | – | – | –
CCCCCCC(O)(CCCCCC)[C@@H](NS(=O)(=O)c1ccccc1F)[C@@H](C)CC [Example 261, 2-fluoro-N-{(1S)-2-hexyl-2-hydroxy-1-[(18)-1-methylpropyl]octyl}benzenesulfonamide] | – | 1 (1=non-toxic) | – | – | APPI Fold Increase [1, 5]: 3.5 fold; APPI % of Example #98 ([1]; Conc 10 μg/ml): 104.4%
O=S(=O)(N[C@H](CO)Cc1ccc(OCc2ccccc2)cc1)c1ccc(Cl)cc1 [Example 96, N-{(1S)-1-[4-(benzyloxy)benzyl]-2-hydroxyethyl}-4-chlorobenzenesulfonamide] | – | – | 1.5 | 1 (1=non-toxic) | –
O=S(=O)(NC1(CO)CCc2ccccc21)c1ccc(Br)cc1 (centres unmarked) [Example 122, 4-bromo-N-[1-(hydroxymethyl)-2,3-dihydro-1H-inden-1-yl]benzenesulfonamide] | – | – | 1.5 | 1 (1=non-toxic) | –
CC[C@H](C)[C@H](NS(=O)(=O)c1ccc(Br)cc1)C(O)c1ccc(F)cc1 (stereo partly drawn) [Example 154, 4-bromo-N-{(1S,2S)-1-[(4-fluorophenyl) (hydroxy)methyl]-2-methylbutyl}benzenesulfonamide] | 1.68 | 1 (1=non-toxic) | – | – | –
CC[C@H](C)[C@H](NS(=O)(=O)c1ccc(Cl)cc1)C(O)(c1ccccc1)c1ccccc1 [Example 227, 4-chloro-N-{(1S,2S)-1-[hydroxy(diphenyl)methyl]-2-methylbutyl}benzenesulfonamide] | 1.65 | 1 (1=non-toxic) | – | – | –
CCC[C@H](C)[C@@H](CO)NS(=O)(=O)c1ccc(Br)cc1 [Example 76, 4-bromo-N-[(1S,2S)-1-(hydroxymethyl)-2-methylpentyl]benzenesulfonamide] | – | – | – | – | fold induction at 20 µg/mL [1, 6]: 5.8; (%)APPI Toxicity [2, 7]: 1 (1=non-toxic)
CCCCCC[C@@H](CCCCC)[C@@H](CO)NS(=O)(=O)c1ccc(Cl)cc1 [Example 62, 4-chloro-N-[(1S,2R)-1-(hydroxymethyl)-2-pentyloctyl]benzenesulfonamide] | – | – | – | – | fold induction at 20 µg/mL [1, 6]: 1.8; (%)APPI Toxicity [2, 7]: 1 (1=non-toxic)
CCCCCC(O)(CCCCC)[C@@H](NS(=O)(=O)c1cccc(Cl)c1)[C@@H](C)CC [Example 250, 3-chloro-N-{(1S)-2-hydroxy-1-[(1S)-1-methylpropyl]-2-pentylheptyl}benzenesulfonamide] | 2.4 | 1 (1=non-toxic) | – | – | –
CCCCCCC(O)(CCCCCC)[C@@H](NS(=O)(=O)c1ccc(Cl)cc1)[C@@H](C)CC [Example 224, 4-chloro-N-{(1S)-2-hexyl-2-hydroxy-1-[(1S)-1-methylpropyl]octyl}benzenesulfonamide] | 2.22 | 1 (1=non-toxic) | – | – | –
CC[C@@H](c1ccco1)[C@@H](CO)NS(=O)(=O)c1ccc(Cl)cc1 [Example 66, 4-chloro -N-[(1S,2R)-2-(2-furyl)-1-(hydroxymethyl)butyl]benzenesulfonamide] | – | – | – | – | fold induction at 20 µg/mL [1, 6]: 5.5; (%)APPI Toxicity [2, 7]: 1 (1=non-toxic)
CC[C@H](C)[C@H](NS(=O)(=O)c1ccc(F)cc1)C(O)(C(C)C)C(C)C [Example 239, 4-fluoro-N-{(1S)-2-hydroxy-2-isopropyl-3-methyl-1-[(1S)-1-methylpropyl]butyl}benzenesulfonamide] | 1.54 | 1 (1=non-toxic) | – | – | –
CCCCC(O)[C@@H](NS(=O)(=O)c1ccc(Cl)cc1)[C@@H](C)CC (stereo partly drawn) [Example 169, 4-chloro-N-{(1S)-2-hydroxy-1-[(1S)-1-methylpropyl]hexyl}benzenesulfonamide] | 2.85 | 1 (1=non-toxic) | – | – | –
O=S(=O)(NC1(CO)CCCCC1)c1ccc(Br)cc1 [Example 120, 4-Bromo-N-[1-(hydroxymethyl)-cyclohexyl]-benzenesulfonamide] | – | – | 5 | 1 (1=non-toxic) | –
C[C@H](NS(=O)(=O)c1ccccc1F)[C@@H](O)c1ccccc1 [Example 111, 2-fluoro-N-[(1 S,2 S)-2-hydroxy-1-methyl-2-phenylethyl] benzenesulfonamide] | – | – | – | 1 (1=non-toxic) | APPI Fold Increase [1, 8]: 1.7 fold; APPI % of Example #98 ([1]; Conc 20 μg/ml): 47.8%
C/C=C(\C)C(O)(/C(C)=C/C)[C@@H](NS(=O)(=O)c1ccc(Br)cc1)[C@@H](C)CC (stereo partly drawn) [Example 220, 4-bromo-N-{(1S,3E)-2-hydroxy-3-methyl-2-[(1E)-1-methyl-1-propenyl]-1-[(1S)-1-methylpropyl]-3-pentenyl}benzenesulfonamide] | 3.29 | 1 (1=non-toxic) | – | – | –
CC(C)[C@@H](CO)NS(=O)(=O)c1c(Cl)cc(Cl)cc1Cl [Example 28, 2,4,6-trichloro-N-[(1S)-1-(hydroxymethyl)-2-methylpropyl]benzenesulfonamide] | – | – | 1.5 | 1 (1=non-toxic) | –
CC(C)[C@@H](CO)NS(=O)(=O)c1cc(F)c(Br)cc1F [Example 26, 4-bromo-2,5-difluoro-N-[(1S)-1-(hydroxymethyl)-2-methylpropyl]benzenesulfonamide] | – | – | 2.4 | 1 (1=non-toxic) | –
CC[C@H](C)[C@H](NS(=O)(=O)c1ccc(F)cc1)C(C)O (stereo partly drawn) [Example 126, 4-fluoro-N-[(1S,2S)-1-(1-hydroxyethyl)-2-methylbutyl]benzenesulfonamide] | 1.52 | 1 (1=non-toxic) | – | – | fold induction at 3 µg/mL ([1]; Conc 3 μg/ml, luciferase activity over diluent control, read-out: APPI Fold Increase): 1.54; (%)APPI Toxicity ([2]; Conc 3 μg/ml): 1 (1=non-toxic)
CC[C@H](C)[C@@H](CO)NS(=O)(=O)c1cc(Cl)cc(Cl)c1 [Example 8, 3,5-dichloro-N-[(1S,2S)-1-(hydroxymethyl)-2-methylbutyl]benzenesulfonamide] | – | – | 2 | 1 (1=non-toxic) | –
3,4-dibromo-N-[(11S)-1-(hydroxymethyl)-2,2-dimethylpropyl]benzenesulfonamide [Example 29] | – | – | – | 1 (1=non-toxic) | APPI Fold Increase [1, 8]: 2.1 fold; APPI % of Example #98 ([1]; Conc 20 μg/ml): 49.5%
CC[C@@H](C)[C@H](CO)NS(=O)(=O)c1ccc(Br)cc1 [Example 33, 4-Bromo-N-[(1R,2R)-1-(hydroxymethyl)-2-methylbutyl]benzenesulfonamide] | – | – | 3.9 | 1 (1=non-toxic) | –
